Consider five compounds from patent publication US10499640B2, “Herbicidal compounds” (SYNGENTA PARTICIPATIONS AG, priority 2014, dated 2019).

Molecules are shown by their SMILES.

Holding throughout (type): in vivo
Test [1] relates to Echinochloa crus-galli (ECHCG). In words: Pre-emergence herbicidal activity, glasshouse pot test. On the set-up: key: 5=total damage to plant; 0=no damage to plant. The note with it: Rate 1000 g/Ha; sprayed one day after sowing; evaluated after 13 days; scale 0-5. The method, then:
(§1) Seeds of a variety of test species were sown in standard soil in pots. After cultivation for one day (pre-emergence) under controlled conditions in a glasshouse (at 24/16° C., day/night; 14 hours light; 65% humidity), the plants were sprayed with an aqueous spray solution derived from the formulation of the technical active ingredient in acetone/water (50:50) solution containing 0.5% Tween 20 (polyoxyethelyene sorbitan monolaurate, CAS RN 9005-64-5). The test plants were then grown in a glasshouse under controlled conditions (at 24/16° C., day/night; 14 hours light; 65% humidity) and watered twice daily. After 13 days, the test was evaluated (5=total damage to plant; 0=no damage to plant).

Test [2] deals with Alopecurus myosuroides (ALOMY). Described as above. More on the design: key: 5=total damage to plant; 0=no damage to plant. The settings on record: Rate 1000 g/Ha; sprayed one day after sowing; evaluated after 13 days; scale 0-5. The protocol: as §1
In test [3] the test system is Amaranthus retroflexus (AMARE). The description is as above. On the set-up: key: 5=total damage to plant; 0=no damage to plant. The note with it: Rate 1000 g/Ha; sprayed one day after sowing; evaluated after 13 days; scale 0-5. The method, then:
as §1

The subject of test [4] is Setaria faberi (SETFA). The description is as above. More on the design: key: 5=total damage to plant; 0=no damage to plant. The note with it: Rate 1000 g/Ha; sprayed one day after sowing; evaluated after 13 days; scale 0-5. The protocol:
as §1

In test [5] the test system is Abutilon theophrasti (ABUTH). The test is described as above. More on the design: key: 5=total damage to plant; 0=no damage to plant. The settings on record: Rate 1000 g/Ha; sprayed one day after sowing; evaluated after 13 days; scale 0-5. The protocol:
as §1

Test [6] concerns Zea mays (ZEAMX). The description is as above. The settings on record: Rate 1000 g/Ha; sprayed one day after sowing; evaluated after 13 days; scale 0-5. The method, then:
as §1

Test [7] relates to Echinochloa crus-galli (ECHCG). In words: Post-emergence herbicidal activity, glasshouse pot test. On the set-up: key: 5=total damage to plant; 0=no damage to plant. The note with it: Rate 1000 g/Ha; sprayed after 8 days cultivation; evaluated after 13 days; scale 0-5. The method, then: (§2) Seeds of a variety of test species were sown in standard soil in pots. After 8 days cultivation (post-emergence) under controlled conditions in a glasshouse (at 24/16° C., day/night; 14 hours light; 65% humidity), the plants were sprayed with an aqueous spray solution derived from the formulation of the technical active ingredient in acetone/water (50:50) solution containing 0.5% Tween 20 (polyoxyethelyene sorbitan monolaurate, CAS RN 9005-64-5). The test plants were then grown in a glasshouse under controlled conditions (at 24/16° C., day/night; 14 hours light; 65% humidity) and watered twice daily. After 13 days, the test was evaluated (5=total damage to plant; 0=no damage to plant).

The subject of test [8] is Zea mays (ZEAMX). The test is described as above. The note with it: Rate 1000 g/Ha; sprayed after 8 days cultivation; evaluated after 13 days; scale 0-5. More on the design: key: 5=total damage to plant; 0=no damage to plant. The protocol: as §2
For test [9], the system named is Alopecurus myosuroides (ALOMY). The test is described as above. More on the design: key: 5=total damage to plant; 0=no damage to plant. The note with it: Rate 1000 g/Ha; sprayed after 8 days cultivation; evaluated after 13 days; scale 0-5. The method, then:
as §2

Test [10] has as its system Amaranthus retroflexus (AMARE). The description is as above. On the set-up: key: 5=total damage to plant; 0=no damage to plant. The note with it: Rate 1000 g/Ha; sprayed after 8 days cultivation; evaluated after 13 days; scale 0-5. The protocol: as §2
The test system of test [11] is Setaria faberi (SETFA). The test is described as above. On the set-up: key: 5=total damage to plant; 0=no damage to plant. The note with it: Rate 1000 g/Ha; sprayed after 8 days cultivation; evaluated after 13 days; scale 0-5. The method, then: as §2
Test [12] has as its system Abutilon theophrasti (ABUTH). The test is described as above. On the set-up: key: 5=total damage to plant; 0=no damage to plant. The settings on record: Rate 1000 g/Ha; sprayed after 8 days cultivation; evaluated after 13 days; scale 0-5. The protocol:
as §2

`CC1C(O)N(c2cc(C(C)(C)F)on2)C(=O)N1C` (stereo not drawn) [Compound A2, 1-[5-(1-fluoro-1-methyl-ethyl)isoxazol-3-yl]-5-hydroxy-3,4-dimethyl-imidazolidin-2-one]: in test [1], the “ECHCG damage score, application pre-emergence” value was found to be 4. The “ALOMY damage score, application pre-emergence” value in [2] was 4. In test [3], the “AMARE damage score, application pre-emergence” value turned out to be 5. Also, the “SETFA damage score, application pre-emergence” value in the test with Setaria faberi (SETFA) [4] is 4. In addition, the “ABUTH damage score, application pre-emergence” value in [5] is on record as 5. In addition, the “ZEAMX damage score, application pre-emergence” value in the test with Zea mays (ZEAMX) [6] came out at 2. Moreover, the “ECHCG damage score, application post-emergence” value in test [7] came out at 5. For the same compound, the “ZEAMX damage score, application post-emergence” value in the test on Zea mays (ZEAMX) [8] turned out to be 5. For the same compound, the “ALOMY damage score, application post-emergence” value in test [9] came to 5. Moreover, the “AMARE damage score, application post-emergence” value in test [10] is 5. The “SETFA damage score, application post-emergence” value in the test with Setaria faberi (SETFA) [11] was found to be 5. Also, the “ABUTH damage score, application post-emergence” value in [12] was determined as 5.
Take `CN1CC(O)N(c2cc(C(C)(C)F)on2)C1=O` (stereo not drawn) [Compound A3]: the “ECHCG damage score, application pre-emergence” value in [1] was determined as 5. For the same compound, the “ALOMY damage score, application pre-emergence” value in [2] came out at 4. In addition, the “AMARE damage score, application pre-emergence” value in test [3] worked out at 5. Also, the “SETFA damage score, application pre-emergence” value in the test on Setaria faberi (SETFA) [4] is 4. Also, in test [5], the “ABUTH damage score, application pre-emergence” value is reported as 5. Also, in the test on Zea mays (ZEAMX) [6], the “ZEAMX damage score, application pre-emergence” value stood at 2. Besides, the “ECHCG damage score, application post-emergence” value in test [7] amounted to 5. In addition, the “ZEAMX damage score, application post-emergence” value in the test on Zea mays (ZEAMX) [8] was determined as 5. Besides, the “ALOMY damage score, application post-emergence” value in [9] is reported as 5. Moreover, the “AMARE damage score, application post-emergence” value in test [10] was determined as 5. Moreover, in the test with Setaria faberi (SETFA) [11], the “SETFA damage score, application post-emergence” value came to 5. Also, in [12], the “ABUTH damage score, application post-emergence” value is 5.
Regarding `CN1CC(O)N(c2cc(C(C)(C)C#N)on2)C1=O` (stereo not drawn) [Compound A4], the “ECHCG damage score, application pre-emergence” value in test [1] is recorded as 5. Also, the “ALOMY damage score, application pre-emergence” value in test [2] was found to be 4. The “AMARE damage score, application pre-emergence” value in [3] is listed as 5. In addition, in the test with Setaria faberi (SETFA) [4], the “SETFA damage score, application pre-emergence” value is given as 5. The “ABUTH damage score, application pre-emergence” value in test [5] is given as 5. For the same compound, in the test with Zea mays (ZEAMX) [6], the “ZEAMX damage score, application pre-emergence” value was 4. Moreover, in [7], the “ECHCG damage score, application post-emergence” value came out at 5. Further, the “ZEAMX damage score, application post-emergence” value in the test on Zea mays (ZEAMX) [8] was 5. Further, the “ALOMY damage score, application post-emergence” value in test [9] amounted to 5. Moreover, in test [10], the “AMARE damage score, application post-emergence” value was determined as 5. For the same compound, the “SETFA damage score, application post-emergence” value with Setaria faberi (SETFA) [11] was 5. Also, the “ABUTH damage score, application post-emergence” value in test [12] stood at 5.
On to `CC1C(O)N(c2cc(C(C)(C)C#N)on2)C(=O)N1C` (stereo not drawn) [Compound A5], for which the “ECHCG damage score, application pre-emergence” value in test [1] was 5. Moreover, in [2], the “ALOMY damage score, application pre-emergence” value is 4. Also, the “AMARE damage score, application pre-emergence” value in test [3] is recorded as 5. Further, the “SETFA damage score, application pre-emergence” value with Setaria faberi (SETFA) [4] was found to be 5. Also, the “ABUTH damage score, application pre-emergence” value in test [5] is given as 5. Moreover, the “ZEAMX damage score, application pre-emergence” value in the test with Zea mays (ZEAMX) [6] is 3. Moreover, the “ECHCG damage score, application post-emergence” value in test [7] is 5. Moreover, in the test on Zea mays (ZEAMX) [8], the “ZEAMX damage score, application post-emergence” value amounted to 5. The “ALOMY damage score, application post-emergence” value in [9] was determined as 5. In addition, the “AMARE damage score, application post-emergence” value in test [10] was found to be 5. The “SETFA damage score, application post-emergence” value with Setaria faberi (SETFA) [11] was 5. Moreover, the “ABUTH damage score, application post-emergence” value in test [12] came to 5.
As for `CC1NC(=O)N(c2cc(C(C)(C)C#N)on2)C1O` (stereo not drawn) [Compound A7], the “ECHCG damage score, application pre-emergence” value in [1] is reported as 4. In test [2], the “ALOMY damage score, application pre-emergence” value is listed as 4. In test [3], the “AMARE damage score, application pre-emergence” value is reported as 5. Also, the “SETFA damage score, application pre-emergence” value with Setaria faberi (SETFA) [4] was 4. In [5], the “ABUTH damage score, application pre-emergence” value was 5. In the test with Zea mays (ZEAMX) [6], the “ZEAMX damage score, application pre-emergence” value is reported as 2. In [7], the “ECHCG damage score, application post-emergence” value came to 4. Moreover, the “ZEAMX damage score, application post-emergence” value in the test with Zea mays (ZEAMX) [8] came out at 3. Also, the “ALOMY damage score, application post-emergence” value in test [9] turned out to be 4. For the same compound, the “AMARE damage score, application post-emergence” value in [10] was 5. Besides, the “SETFA damage score, application post-emergence” value with Setaria faberi (SETFA) [11] was determined as 4. In addition, the “ABUTH damage score, application post-emergence” value in [12] came to 5.
